Test results as given in US20250312499A1, “KISSPEPTIN RECEPTOR (KISS1R) TARGETED THERAPEUTICS AND USES THEREOF” (priority 2024, published 2025).
Numbered stars: 1 amine (or outer) side, 2 acyl side, 3 side chain; on linkers, the order of the positions; unused ones are H or OH. Square brackets hold non-standard residues; d marks the D form. Peptide text beside a SMILES is read from it. * marks the point of attachment. DOTA = O=C(O)CN1CCN(CC(=O)O)CCN(CC(=O)*)CCN(CC(=O)O)CC1; Gly(N-(3-F-4-Me-benzyl)) = Cc1ccc(CNCC(=O)*)cc1F; Butanoyl(4-(4-I-phenyl)) = O=C(CCCc1ccc(I)cc1)*; Propanoyl(3-(MeO(CH2CH2O)2)) = COCCOCCOCCC(=O)*; Acetyl(2-(HOCH2CH2OCH2CH2O)) = O=C(COCCOCCO)*; Gly(Nα-4-MeO-benzyl) = COc1ccc(CNCC(=O)*)cc1; Api(1-amidino) = N=C(N)N1CCC(N)(C(=O)O)CC1; Hydrocinnamoyl(4-I) = O=C(CCc1ccc(I)cc1)*; Phe(3-F) = N[C@@H](Cc1cccc(F)c1)C(=O)O; d2Nal = N[C@H](Cc1ccc2ccccc2c1)C(=O)O; X1 = O=C(CN1CCC(N[*:1])CC1)[*:2]; 4Pal = N[C@@H](Cc1ccncc1)C(=O)O; Cha = N[C@@H](CC1CCCCC1)C(=O)O; 4Amb = NCc1ccc(C(=O)O)cc1; Api = NC1(C(=O)O)CCNCC1; PEG2 = NCCOCCOCCC(=O)O; Ahx = NCCCCCC(=O)O; azaGly = NNC(=O)O; Sar = CNCC(=O)O

molecular target: human kisspeptin receptor (Homo sapiens (Human), UniProt Q969F8); assay: Human KISS1R binding assay (membrane competition binding); conditions: 90 min at room temperature; competition with 0.2 nM [125I]-metastin (45-54); Flp-In T-Rex 293 kisspeptin membranes; metal complexes nonradioactive Ga, In, Lu; read-out: hKiSSR Binding Ki (90 min)
Sequence (Q969F8 whole entry): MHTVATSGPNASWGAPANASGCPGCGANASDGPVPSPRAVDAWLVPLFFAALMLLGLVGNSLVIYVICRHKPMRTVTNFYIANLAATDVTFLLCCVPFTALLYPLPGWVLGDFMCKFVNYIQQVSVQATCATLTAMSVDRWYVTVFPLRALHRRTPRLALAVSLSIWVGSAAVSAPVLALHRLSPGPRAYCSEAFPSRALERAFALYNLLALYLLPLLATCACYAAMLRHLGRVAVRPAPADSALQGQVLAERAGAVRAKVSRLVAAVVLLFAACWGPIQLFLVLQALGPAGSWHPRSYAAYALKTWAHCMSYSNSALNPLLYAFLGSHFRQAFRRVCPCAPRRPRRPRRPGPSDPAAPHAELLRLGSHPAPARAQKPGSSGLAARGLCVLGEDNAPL
In short: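 Radioligand competition: 0.2 nM [125I]-metastin (45-54) displaced by test ligand (usually 0–10,000 nM) over 90 min at room temperature, pH 7.4 buffer with 0.1% BSA. Receptor source is crude membrane (5–10 μg) from tetracycline-induced Flp-In T-Rex 293 cells. Bound label filtered and counted; Ki from non-linear regression.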

Ki | SMILES
< 0.01 µM | CC(C)C[C@H](NC(=O)NNC(=O)[C@H](Cc1ccccc1)NC(=O)[C@@H](NC(=O)[C@H](CC(N)=O)NC(=O)[C@H](CCCCNC(=O)CN1CCN(CC(=O)O)CCN(CC(=O)O)CCN(CC(=O)O)CC1)NC(=O)[C@@H](Cc1ccc(O)cc1)NC(=O)CCOCCOCCNC(=O)CCc1ccc(I)cc1)[C@@H](C)O)C(=O)NC1(C(=O)N[C@@H](Cc2ccccc2)C(N)=O)CCN(C(=N)N)CC1 [Compound 323] ({Hydrocinnamoyl(4-I)-PEG2}-[dY]K(DOTA)NTF[azaGly]L[Api(1-amidino)]F-NH2)
< 0.01 µM | COc1ccc(CNCC(=O)N2CCC(NC(=O)[C@H](CC(C)C)NC(=O)NNC(=O)[C@H](Cc3ccccc3)NC(=O)[C@@H](NC(=O)[C@H](CC(N)=O)NC(=O)[C@@H](Cc3c[nH]c4ccccc34)NC(=O)[C@@H](Cc3ccc(O)cc3)NC(=O)CCCCCNC(=O)CN3CCN(CC(=O)O)CCN(CC(=O)O)CCN(CC(=O)O)CC3)[C@@H](C)O)(C(=O)N[C@@H](Cc3ccccc3)C(N)=O)CC2)cc1 [Compound 140] ({DOTA-Ahx}-[dY][dW]NTF[azaGly]L[Api](Gly(Nα-4-MeO-benzyl))F-NH2)
< 0.01 µM | CNCC(=O)N1CCC(NC(=O)[C@H](CC(C)C)NC(=O)NNC(=O)[C@H](Cc2ccccc2)NC(=O)[C@@H](NC(=O)[C@H](CC(N)=O)NC(=O)[C@@H](Cc2ccc3ccccc3c2)NC(=O)[C@@H](Cc2ccc(O)cc2)NC(=O)CCCc2ccc(I)cc2)[C@@H](C)O)(C(=O)N[C@@H](Cc2c[nH]c3ccccc23)C(N)=O)CC1 [Compound 395] ({Butanoyl(4-(4-I-phenyl))}-[dY][d2Nal]NTF[azaGly]L[Api](Sar)W-NH2)
< 0.01 µM | Cc1ccc(CNCC(=O)N2CCC(NC(=O)[C@H](CC(C)C)NC(=O)NNC(=O)[C@H](Cc3ccccc3)NC(=O)[C@@H](NC(=O)[C@H](CC(N)=O)NC(=O)[C@@H](Cc3ccc4ccccc4c3)NC(=O)[C@@H](Cc3ccc(O)cc3)NC(=O)CCCCCNC(=O)CN3CCN(CC(=O)O)CCN(CC(=O)O)CCN(CC(=O)O)CC3)[C@@H](C)O)(C(=O)N[C@@H](Cc3ccc(O)cc3)C(N)=O)CC2)cc1F [Compound 367] ({DOTA-Ahx}-[dY][d2Nal]NTF[azaGly]L[Api](Gly(N-(3-F-4-Me-benzyl)))Y-NH2)
< 0.01 µM | COCCOCCOCCC(=O)N[C@@H](CCCCNC(=O)CN1CCN(CC(=O)O)CCN(CC(=O)O)CCN(CC(=O)O)CC1)C(=O)N[C@@H](CC(N)=O)C(=O)N[C@H](C(=O)N[C@@H](Cc1ccccc1)C(=O)NNC(=O)N[C@@H](CC(C)C)C(=O)NC1(C(=O)N[C@@H](Cc2c[nH]c3ccccc23)C(N)=O)CCN(C(=N)N)CC1)[C@@H](C)O [Compound 264] ({Propanoyl(3-(MeO(CH2CH2O)2))}-K(DOTA)NTF[azaGly]L[Api(1-amidino)]W-NH2)
< 0.01 µM | CC(C)C[C@H](NC(=O)NNC(=O)[C@H](Cc1ccccc1)NC(=O)[C@@H](NC(=O)[C@H](CC(N)=O)NC(=O)[C@@H](Cc1ccc2ccccc2c1)NC(=O)[C@@H](Cc1ccc(O)cc1)NC(=O)CCCCCNC(=O)CN1CCN(CC(=O)O)CCN(CC(=O)O)CCN(CC(=O)O)CC1)[C@@H](C)O)C(=O)NC1(C(=O)N[C@@H](Cc2ccccc2)C(N)=O)CCN(C(=N)N)CC1 [Compound 300] ({DOTA-Ahx}-[dY][d2Nal]NTF[azaGly]L[Api(1-amidino)]F-NH2)
< 0.01 µM | Cc1ccc(CNCC(=O)N2CCC(NC(=O)[C@H](CC(C)C)NC(=O)NNC(=O)[C@H](Cc3ccccc3)NC(=O)[C@@H](NC(=O)[C@H](CC(N)=O)NC(=O)[C@@H](Cc3c[nH]c4ccccc34)NC(=O)[C@@H](Cc3c[nH]cn3)NC(=O)[C@@H](Cc3ccc(O)cc3)NC(=O)CN3CCC(NC(=O)CN4CCN(CC(=O)O)CCN(CC(=O)O)CCN(CC(=O)O)CC4)CC3)[C@@H](C)O)(C(=O)N[C@@H](Cc3c[nH]c4ccccc34)C(N)=O)CC2)cc1F [Compound 33] ({DOTA}-[X1][dY][dH][dW]NTF[azaGly]L[Api](Gly(N-(3-F-4-Me-benzyl)))W-NH2)
< 0.01 µM | CC(=O)N[C@@H](Cc1ccccc1)C(=O)NNC(=O)N[C@@H](CC(C)C)C(=O)NC1(C(=O)N[C@@H](Cc2c[nH]c3ccccc23)C(N)=O)CCN(C(=O)CNCc2ccc(C)c(F)c2)CC1 [Compound 392] (Ac-F[azaGly]L[Api](Gly(N-(3-F-4-Me-benzyl)))W-NH2)
0.01 to 0.1 µM | CCc1cc(-c2ccccc2OCCNC(=O)[C@H](Cc2ccccc2)NC(=O)CCCCCNC(=O)CN2CCN(CC(=O)O)CCN(CC(=O)O)CCN(CC(=O)O)CC2)ccc1C(=O)NC1(C(=O)N[C@@H](Cc2c[nH]c3ccccc23)C(N)=O)CCN(C(=O)CNCc2ccc(C)c(F)c2)CC1 [Compound 284]
< 0.01 µM | Cc1ccc(CNCC(=O)N2CCC(NC(=O)[C@H](CC(C)C)NC(=O)NNC(=O)[C@H](CC3CCCCC3)NC(=O)[C@@H](NC(=O)[C@H](CC(N)=O)NC(=O)CCCCCNC(=O)CN3CCN(CC(=O)O)CCN(CC(=O)O)CCN(CC(=O)O)CC3)[C@@H](C)O)(C(=O)N[C@@H](Cc3c[nH]c4ccccc34)C(N)=O)CC2)cc1F [Compound 313] ({DOTA-Ahx}-NT[Cha][azaGly]L[Api](Gly(N-(3-F-4-Me-benzyl)))W-NH2)
> 0.1 µM | CC(C)C[C@H](NC(=O)CNC(=O)[C@H](Cc1ccccc1)NC(=O)CCCCCNC(=O)CN1CCN(CC(=O)O)CCN(CC(=O)O)CCN(CC(=O)O)CC1)C(=O)NC1(C(=O)N[C@@H](Cc2c[nH]c3ccccc23)C(N)=O)CCN(C(=N)N)CC1 [Compound 3] ({DOTA-Ahx}-FGL[Api(1-amidino)]W-NH2)
< 0.01 µM | Cc1ccc(CNCC(=O)N2CCC(NC(=O)[C@H](CC(C)C)NC(=O)NNC(=O)[C@H](Cc3cccc(F)c3)NC(=O)[C@@H](NC(=O)[C@H](CC(N)=O)NC(=O)[C@H](CCCCNC(=O)CN3CCN(CC(=O)O)CCN(CC(=O)O)CCN(CC(=O)O)CC3)NC(=O)[C@@H](Cc3ccc(O)cc3)NC(=O)COCCOCCO)[C@@H](C)O)(C(=O)N[C@@H](Cc3c[nH]c4ccccc34)C(N)=O)CC2)cc1F [Compound 64] ({Acetyl(2-(HOCH2CH2OCH2CH2O))}-[dY]K(DOTA)NT[Phe(3-F)][azaGly]L[Api](Gly(N-(3-F-4-Me-benzyl)))W-NH2)
< 0.01 µM | CC(C)C[C@H](NC(=O)NNC(=O)[C@H](Cc1ccccc1)NC(=O)[C@@H](NC(=O)[C@H](CC(N)=O)NC(=O)[C@@H](Cc1c[nH]c2ccccc12)NC(=O)[C@@H](Cc1ccc(O)cc1)NC(=O)c1ccc(CNC(=O)CCCCCNC(=O)CN2CCN(CC(=O)O)CCN(CC(=O)O)CCN(CC(=O)O)CC2)cc1)[C@@H](C)O)C(=O)NC1(C(=O)N[C@@H](Cc2c[nH]c3ccccc23)C(N)=O)CCN(C(=N)N)CC1 [Compound 270] ({DOTA-Ahx-4Amb}-[dY][dW]NTF[azaGly]L[Api(1-amidino)]W-NH2)
< 0.01 µM | CC(C)C[C@H](NC(=O)NNC(=O)[C@H](Cc1ccccc1)NC(=O)[C@@H](NC(=O)[C@H](CC(N)=O)NC(=O)c1ccc(CNC(=O)CN2CCN(CC(=O)O)CCN(CC(=O)O)CCN(CC(=O)O)CC2)cc1)[C@@H](C)O)C(=O)NC1(C(=O)N[C@@H](Cc2ccncc2)C(N)=O)CCN(C(=N)N)CC1 [Compound 272] ({DOTA-4Amb}-NTF[azaGly]L[Api(1-amidino)][4Pal]-NH2)

SMILES | Ki
Cc1ccc(CNCC(=O)N2CCC(NC(=O)c3ccc(-c4ccccc4)c(OCCNNC(=O)[C@H](Cc4ccccc4)NC(=O)CCCCCNC(=O)CN4CCN(CC(=O)O)CCN(CC(=O)O)CCN(CC(=O)O)CC4)c3)(C(=O)N[C@@H](Cc3c[nH]c4ccccc34)C(N)=O)CC2)cc1F [Compound 280] | > 0.1 µM
